Reference: publication PMC11059313 (Methods in molecular biology (Clifton, N.J.), 2023)
Non-standard residues stand in square brackets, D forms with d. No end group written: not given here. pY = N[C@@H](Cc1ccc(OP(=O)(O)O)cc1)C(=O)O

T1: p120RasGAP N-terminal SH2 domain (residues 174-280, C236S, C261S) (UniProt P20936 174-280, C236S | C261S)
T1 sequence (looked up): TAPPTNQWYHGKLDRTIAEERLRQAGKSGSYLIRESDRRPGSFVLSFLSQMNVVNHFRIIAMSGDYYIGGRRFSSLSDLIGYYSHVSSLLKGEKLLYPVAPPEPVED

B1: p190RhoGAP pTyr-1105 phosphopeptide (residues 1100-1112) (peptide)
peptide: Ac-EEENI[pY]SVPHDST-NH2
SMILES: CC[C@H](C)[C@H](NC(=O)[C@H](CC(N)=O)NC(=O)[C@H](CCC(=O)O)NC(=O)[C@H](CCC(=O)O)NC(=O)[C@H](CCC(=O)O)NC(C)=O)C(=O)N[C@@H](Cc1ccc(OP(=O)(O)O)cc1)C(=O)N[C@@H](CO)C(=O)N[C@H](C(=O)N1CCC[C@H]1C(=O)N[C@@H](Cc1c[nH]cn1)C(=O)N[C@@H](CC(=O)O)C(=O)N[C@@H](CO)C(=O)N[C@H](C(N)=O)[C@@H](C)O)C(C)C

Assays:
[1] = pH 7.4
[2] = target: T1, p120RasGAP N-terminal SH2 domain …; test: co-crystallisation

Maximum Solubility [1] [µg/mL] | binding result [2] | Molecule
10000 |  | D[pY]AEPMDA [pY-1087]
 | binds | B1
